Patent US9227969B2, “Compounds and compositions as inhibitors of MEK” (NOVARTIS AG, priority 2013, dated 2016)
Read-outs that look alike come from different tables or passages of the source.

Assays:
ABL1 = ABL1 (Homo sapiens (Human), UniProt P00519); experiment: Kinase Panel screen: ABL1; type: biochemical
Text: (§1) Compounds of the invention are screened, using assay conditions known in the art, against some or all of the “Kinase Panel” comprising ABL1, ABL1 (T315I), ACVR1, AKT1, ALK, AURKA, AXL, BTK, CAMK2D, CDK1B, CDK2A, CDK4D1, CSK, CSNK1G3, EGFR, EPHA4, EPHB4, ERBB4, FGFR1, FGFR2, FGFR3, FGFR3 (K650E), FGFR4, FLT3 (D835Y), IGF1R, GSK3B, INSR, IRAK4, JAK1, JAK2, JAK3, KDR, KIT, LCK, LYN, MAP3K8, MAPK1, MAPK10, MAPK14, MAPKAPK2, MAPKAPK5, MET, MKNK1, MKNK2, PAK2, PDGFRa, PDPK1, PIM2, PKN1, PKN2, PLK1, PRKACA, PRKCA, PRKCQ, RET, ROCK2, RPS6 KB1, SRC, SYK, TYK2, WNK1, ZAP70, PIKSCD, PIK3CG, MTOR, PIK3C3, PIK3CA, PIK3CB and PIK4CB.

LCK = LCK (Homo sapiens (Human), UniProt P06239); experiment: Kinase Panel screen: LCK; type: biochemical
Chain of LCK (P06239 whole entry, species assumed): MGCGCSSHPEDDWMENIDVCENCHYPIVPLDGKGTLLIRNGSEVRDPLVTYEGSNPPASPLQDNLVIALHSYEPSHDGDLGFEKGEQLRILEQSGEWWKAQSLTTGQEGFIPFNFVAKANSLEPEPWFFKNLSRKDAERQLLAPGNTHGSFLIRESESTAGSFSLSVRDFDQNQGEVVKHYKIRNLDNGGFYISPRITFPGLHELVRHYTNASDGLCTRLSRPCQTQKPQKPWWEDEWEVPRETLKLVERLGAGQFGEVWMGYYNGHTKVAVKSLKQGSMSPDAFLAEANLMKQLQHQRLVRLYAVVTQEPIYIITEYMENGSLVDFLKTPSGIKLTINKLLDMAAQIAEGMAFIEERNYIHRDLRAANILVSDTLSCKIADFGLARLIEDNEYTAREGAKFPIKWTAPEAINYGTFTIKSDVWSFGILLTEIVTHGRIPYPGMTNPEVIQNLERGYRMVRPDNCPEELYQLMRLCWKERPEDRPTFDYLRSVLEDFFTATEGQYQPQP
Text: as §1

PDGFRa = PDGFRa (Homo sapiens (Human), UniProt P16234); experiment: Kinase Panel screen: PDGFRa; type: biochemical
Chain of PDGFRa (P16234 24-1089, species assumed): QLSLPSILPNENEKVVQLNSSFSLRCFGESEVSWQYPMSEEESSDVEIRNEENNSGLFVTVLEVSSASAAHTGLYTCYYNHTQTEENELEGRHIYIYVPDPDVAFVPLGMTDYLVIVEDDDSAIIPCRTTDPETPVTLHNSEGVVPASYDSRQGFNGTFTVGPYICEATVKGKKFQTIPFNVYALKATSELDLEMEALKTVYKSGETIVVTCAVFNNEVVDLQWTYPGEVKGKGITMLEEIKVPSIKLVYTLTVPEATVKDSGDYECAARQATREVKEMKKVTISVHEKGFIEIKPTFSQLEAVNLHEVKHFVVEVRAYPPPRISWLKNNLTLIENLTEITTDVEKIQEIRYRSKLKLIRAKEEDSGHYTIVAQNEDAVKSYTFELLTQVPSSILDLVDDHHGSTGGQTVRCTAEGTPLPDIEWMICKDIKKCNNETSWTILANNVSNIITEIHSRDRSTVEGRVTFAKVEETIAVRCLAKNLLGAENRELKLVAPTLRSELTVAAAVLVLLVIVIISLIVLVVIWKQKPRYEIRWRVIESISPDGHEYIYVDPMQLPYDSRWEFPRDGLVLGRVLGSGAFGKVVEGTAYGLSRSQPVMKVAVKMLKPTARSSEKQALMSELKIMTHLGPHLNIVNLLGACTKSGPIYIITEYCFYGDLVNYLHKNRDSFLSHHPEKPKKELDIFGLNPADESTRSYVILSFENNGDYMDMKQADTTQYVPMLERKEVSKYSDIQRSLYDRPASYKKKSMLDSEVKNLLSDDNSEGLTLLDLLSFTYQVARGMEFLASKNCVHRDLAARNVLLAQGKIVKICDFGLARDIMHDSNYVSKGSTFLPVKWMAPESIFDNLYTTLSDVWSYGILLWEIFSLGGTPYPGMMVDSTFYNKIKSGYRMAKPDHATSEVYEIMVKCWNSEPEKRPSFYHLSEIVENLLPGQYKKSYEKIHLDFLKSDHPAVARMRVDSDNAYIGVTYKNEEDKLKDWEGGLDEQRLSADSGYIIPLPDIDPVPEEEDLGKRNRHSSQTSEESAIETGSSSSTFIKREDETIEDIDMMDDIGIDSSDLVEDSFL
Text: as §1

LYN = LYN (Homo sapiens (Human), UniProt P07948); experiment: Kinase Panel screen: LYN; type: biochemical
Chain of LYN (P07948 whole entry, species assumed): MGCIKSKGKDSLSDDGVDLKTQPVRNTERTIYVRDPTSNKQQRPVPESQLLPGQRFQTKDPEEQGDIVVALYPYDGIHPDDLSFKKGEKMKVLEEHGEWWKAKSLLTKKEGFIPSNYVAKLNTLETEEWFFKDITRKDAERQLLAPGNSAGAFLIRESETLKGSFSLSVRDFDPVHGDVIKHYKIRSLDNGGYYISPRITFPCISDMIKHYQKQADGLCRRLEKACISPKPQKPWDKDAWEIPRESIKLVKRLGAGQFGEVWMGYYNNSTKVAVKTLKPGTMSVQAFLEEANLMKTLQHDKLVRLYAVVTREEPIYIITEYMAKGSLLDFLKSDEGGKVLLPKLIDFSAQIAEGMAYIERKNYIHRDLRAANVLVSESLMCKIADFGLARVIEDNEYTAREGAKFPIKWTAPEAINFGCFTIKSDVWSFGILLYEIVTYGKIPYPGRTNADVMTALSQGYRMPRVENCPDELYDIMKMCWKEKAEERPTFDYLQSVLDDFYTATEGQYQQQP
Text: as §1

[1] = target: T1, human full length MEK1 kinase (Homo sapiens (Human), UniProt Q02750); experiment: biochemical
T1 sequence (Q02750 whole entry): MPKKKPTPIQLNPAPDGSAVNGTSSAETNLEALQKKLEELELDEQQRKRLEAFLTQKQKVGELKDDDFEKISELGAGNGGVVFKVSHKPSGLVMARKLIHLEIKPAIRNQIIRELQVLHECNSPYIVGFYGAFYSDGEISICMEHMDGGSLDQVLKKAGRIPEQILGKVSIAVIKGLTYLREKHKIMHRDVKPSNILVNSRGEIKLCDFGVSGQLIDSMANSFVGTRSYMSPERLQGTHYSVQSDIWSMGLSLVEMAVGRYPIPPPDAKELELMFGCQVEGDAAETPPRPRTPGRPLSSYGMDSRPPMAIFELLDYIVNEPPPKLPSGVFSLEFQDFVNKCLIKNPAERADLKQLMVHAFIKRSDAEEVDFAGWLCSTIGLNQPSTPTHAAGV
Text: (§2) A BRAF-MEK-ERK cascade assay is used to evaluate the effects of these compounds as inhibitors of the MAP kinase pathway. […] TR-FRET (Time resolved fluorescence resonance energy transfer) detection technology is used for the read out.

[2] = target: T1, human full length MEK1 kinase; settings: read-out: MEK1 1 mM ATP IC50, BRAF-MEK-ERK cascade
Text: as §2

Chain of ABL1 (P00519 whole entry, species assumed): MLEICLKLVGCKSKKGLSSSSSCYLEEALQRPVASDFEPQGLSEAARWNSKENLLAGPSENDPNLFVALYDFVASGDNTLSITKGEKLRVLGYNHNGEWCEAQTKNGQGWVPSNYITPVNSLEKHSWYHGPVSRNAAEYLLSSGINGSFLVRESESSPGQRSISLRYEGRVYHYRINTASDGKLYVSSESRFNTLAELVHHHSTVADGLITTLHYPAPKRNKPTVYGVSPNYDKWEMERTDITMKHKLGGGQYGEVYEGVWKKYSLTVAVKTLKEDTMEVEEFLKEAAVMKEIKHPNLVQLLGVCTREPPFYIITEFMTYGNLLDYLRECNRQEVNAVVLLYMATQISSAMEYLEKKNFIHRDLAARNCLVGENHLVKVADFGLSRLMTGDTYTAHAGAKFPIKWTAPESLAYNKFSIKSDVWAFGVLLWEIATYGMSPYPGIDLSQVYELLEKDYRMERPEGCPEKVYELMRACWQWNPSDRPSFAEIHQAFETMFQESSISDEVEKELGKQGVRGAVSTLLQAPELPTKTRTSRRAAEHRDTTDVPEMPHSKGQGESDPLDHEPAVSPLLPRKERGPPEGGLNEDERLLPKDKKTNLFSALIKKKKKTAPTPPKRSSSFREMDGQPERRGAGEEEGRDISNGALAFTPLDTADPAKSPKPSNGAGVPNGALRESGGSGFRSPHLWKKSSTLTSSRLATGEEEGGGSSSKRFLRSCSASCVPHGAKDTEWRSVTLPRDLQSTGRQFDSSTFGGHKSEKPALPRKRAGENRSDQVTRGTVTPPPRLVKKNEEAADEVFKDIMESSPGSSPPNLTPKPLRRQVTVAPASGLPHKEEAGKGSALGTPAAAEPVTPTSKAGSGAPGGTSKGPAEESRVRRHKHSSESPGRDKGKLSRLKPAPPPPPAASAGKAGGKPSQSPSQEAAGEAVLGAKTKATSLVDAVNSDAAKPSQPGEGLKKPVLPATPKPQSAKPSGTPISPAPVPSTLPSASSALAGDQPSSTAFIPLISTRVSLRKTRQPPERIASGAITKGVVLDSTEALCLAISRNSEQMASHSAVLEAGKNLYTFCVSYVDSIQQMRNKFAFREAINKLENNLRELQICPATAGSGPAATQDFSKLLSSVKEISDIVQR

Row | SMILES | IC50 (ABL1) | IC50 (LCK) | IC50 (PDGFRa) | IC50 (LYN) | IC50 [1] | IC50 [2]
1 | COc1cc(Oc2ccccn2)ccc1-c1ccc2ncc3ncn(-c4ccc(CC#N)cc4)c3c2c1 [compound (B)] | 20 nM | 7 nM | 50 nM | 30 nM | – | –
2 | Cc1nc2cnc3cc(F)c(-c4ccc(Oc5ncccn5)cc4Cl)cc3c2n1[C@@H]1CCN(C(=O)CO)C[C@H]1F [Example 1B, 1-((3R,4R)-4-(8-(2-chloro-4-(pyrimidin-2-yloxy)phenyl)-7-fluoro-2-methyl-1H-imidazo[4,5-c]quinolin-1-yl)-3-fluoropiperidin-1-yl)-2-hydroxyethanone] | – | – | – | – | 138 nM | 138 nM
3 | Cc1nc2cnc3cc(F)c(-c4ccc(Oc5ncccn5)cc4Cl)cc3c2n1[C@H]1CCN(C(=O)CO)C[C@@H]1F [Example 1A, 1-((3S,4S)-4-(8-(2-chloro-4-(pyrimidin-2-yloxy)phenyl)-7-fluoro-2-methyl-1H-imidazo[4,5-c]quinolin-1-yl)-3-fluoropiperidin-1-yl)-2-hydroxyethanone] | – | – | – | – | 5 nM | 5 nM
